Assays:
Test in all cases: relative viability (nuclei count vs DMSO), 5 days (fraction); higher = more cells survive
QS11 + AZD7762 = compound: C1CC2=C(C1)C=C(C=C2)OC3=NC(=C4C(=N3)N(C=N4)CC5=CC=C(C=C5)C6=CC=CC=C6)N[C@@H](CC7=CC=CC=C7)CO [QS11] + NC(=O)Nc1cc(-c2cccc(F)c2)sc1C(=O)N[C@H]1CCCNC1 [AZD7762] (partner 0.2 µM)
Outline: (§1)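 One day after seeding in 1536-well plates, lung cancer cell lines were dosed by pin tool. Dosing was either single-drug or a fixed anchor-drug dose plus five library-drug doses (not always all listed) in √10 steps. After 5 days, nuclei were stained in one fix-and-stain step and counted on 4× images, and relative viability is the nuclei count of treated wells over that of vehicle wells, given as the median of duplicate plates.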

[1] = compound: C[As](C)SC[C@H](NC(=O)CC[C@H](N)C(=O)O)C(=O)NCC(=O)O [Darinaparsin] + CC(=O)Nc1cccc(-n2c(=O)n(C3CC3)c(=O)c3c(Nc4ccc(I)cc4F)n(C)c(=O)c(C)c32)c1 [Trametinib] (partner 0.02 µM)
Outline: as §1

Darinaparsin + Olaparib = compound: C[As](C)SC[C@H](NC(=O)CC[C@H](N)C(=O)O)C(=O)NCC(=O)O [Darinaparsin] + O=C(c1cc(Cc2n[nH]c(=O)c3ccccc23)ccc1F)N1CCN(C(=O)C2CC2)CC1 [Olaparib] (partner 8 µM)
Outline: as §1

QS11 + Lapatinib = compound: C1CC2=C(C1)C=C(C=C2)OC3=NC(=C4C(=N3)N(C=N4)CC5=CC=C(C=C5)C6=CC=CC=C6)N[C@@H](CC7=CC=CC=C7)CO [QS11] + CS(=O)(=O)CCNCc1ccc(-c2ccc3ncnc(Nc4ccc(OCc5cccc(F)c5)c(Cl)c4)c3c2)o1 [Lapatinib] (partner 2 µM)
Outline: as §1

201T was tested, and the relative viability (QS11 + AZD7762; first compound 0.08 µM) was 0.669, the relative viability (QS11 + AZD7762; first compound 0.253 µM) was 0.748 and the relative viability (QS11 + AZD7762; first compound 0.8 µM) was 0.591. The relative viability (QS11 + AZD7762; first compound 2.53 µM) was 0.619, the relative viability (QS11 + AZD7762; first compound 8 µM) was 0.617 and the relative viability ([1]; first compound 0.08 µM) was 0.777. For the same cell line, the relative viability ([1]; first compound 0.8 µM) was 0.728, the relative viability ([1]; first compound 2.53 µM) was 0.711 and the relative viability ([1]; first compound 8 µM) was 0.751. For the same cell line, the relative viability (Darinaparsin + Olaparib; first compound 0.08 µM) was 0.942, the relative viability (Darinaparsin + Olaparib; first compound 0.8 µM) was 0.851 and the relative viability (Darinaparsin + Olaparib; first compound 2.53 µM) was 0.803. It also gave a relative viability (Darinaparsin + Olaparib; first compound 8 µM) of 0.863, a relative viability (QS11 + Lapatinib; first compound 0.08 µM) of 1.05 and a relative viability (QS11 + Lapatinib; first compound 0.253 µM) of 0.835. For the same cell line, the relative viability (QS11 + Lapatinib; first compound 0.8 µM) was 0.834, the relative viability (QS11 + Lapatinib; first compound 2.53 µM) was 1.11 and the relative viability (QS11 + Lapatinib; first compound 8 µM) was 0.895.

HCC-44 showed a relative viability (QS11 + AZD7762; first compound 0.08 µM) of 1.11, a relative viability (QS11 + AZD7762; first compound 0.253 µM) of 0.995 and a relative viability (QS11 + AZD7762; first compound 0.8 µM) of 0.65. It also gave a relative viability (QS11 + AZD7762; first compound 2.53 µM) of 1.02, a relative viability (QS11 + AZD7762; first compound 8 µM) of 1.02 and a relative viability ([1]; first compound 0.08 µM) of 1.11. The relative viability ([1]; first compound 0.8 µM) was 1.2, the relative viability ([1]; first compound 2.53 µM) was 0.942 and the relative viability ([1]; first compound 8 µM) was 1.1. The relative viability (Darinaparsin + Olaparib; first compound 0.08 µM) was 1.06, the relative viability (Darinaparsin + Olaparib; first compound 0.8 µM) was 0.993 and the relative viability (Darinaparsin + Olaparib; first compound 2.53 µM) was 0.942. The relative viability (Darinaparsin + Olaparib; first compound 8 µM) was 1.03, the relative viability (QS11 + Lapatinib; first compound 0.08 µM) was 1.07 and the relative viability (QS11 + Lapatinib; first compound 0.253 µM) was 0.936. The relative viability (QS11 + Lapatinib; first compound 0.8 µM) was 0.668, the relative viability (QS11 + Lapatinib; first compound 2.53 µM) was 0.955 and the relative viability (QS11 + Lapatinib; first compound 8 µM) was 0.888.

For EMC-BAC-2, the relative viability (QS11 + AZD7762; first compound 0.08 µM) was 1.1, the relative viability (QS11 + AZD7762; first compound 0.253 µM) was 0.99 and the relative viability (QS11 + AZD7762; first compound 0.8 µM) was 0.957. The relative viability (QS11 + AZD7762; first compound 2.53 µM) was 0.989, the relative viability (QS11 + AZD7762; first compound 8 µM) was 0.856 and the relative viability ([1]; first compound 0.08 µM) was 0.909. For the same cell line, the relative viability ([1]; first compound 0.8 µM) was 0.802, the relative viability ([1]; first compound 2.53 µM) was 1.01 and the relative viability ([1]; first compound 8 µM) was 0.887. The relative viability (Darinaparsin + Olaparib; first compound 0.08 µM) was 0.475, the relative viability (Darinaparsin + Olaparib; first compound 0.8 µM) was 0.447 and the relative viability (Darinaparsin + Olaparib; first compound 2.53 µM) was 0.614. For the same cell line, the relative viability (Darinaparsin + Olaparib; first compound 8 µM) was 0.461, the relative viability (QS11 + Lapatinib; first compound 0.08 µM) was 0.927 and the relative viability (QS11 + Lapatinib; first compound 0.253 µM) was 0.89. For the same cell line, the relative viability (QS11 + Lapatinib; first compound 0.8 µM) was 0.884, the relative viability (QS11 + Lapatinib; first compound 2.53 µM) was 0.984 and the relative viability (QS11 + Lapatinib; first compound 8 µM) was 0.89.

NCI-H2405 showed a relative viability (QS11 + AZD7762; first compound 0.08 µM) of 0.731, a relative viability (QS11 + AZD7762; first compound 0.253 µM) of 0.747 and a relative viability (QS11 + AZD7762; first compound 0.8 µM) of 0.789. For the same cell line, the relative viability (QS11 + AZD7762; first compound 2.53 µM) was 1.13, the relative viability (QS11 + AZD7762; first compound 8 µM) was 1.22 and the relative viability ([1]; first compound 0.08 µM) was 0.702. It also gave a relative viability ([1]; first compound 0.8 µM) of 0.562, a relative viability ([1]; first compound 2.53 µM) of 0.55 and a relative viability ([1]; first compound 8 µM) of 0.668. It also gave a relative viability (Darinaparsin + Olaparib; first compound 0.08 µM) of 0.992, a relative viability (Darinaparsin + Olaparib; first compound 0.8 µM) of 0.865 and a relative viability (Darinaparsin + Olaparib; first compound 2.53 µM) of 0.841. It also gave a relative viability (Darinaparsin + Olaparib; first compound 8 µM) of 0.914, a relative viability (QS11 + Lapatinib; first compound 0.08 µM) of 0.951 and a relative viability (QS11 + Lapatinib; first compound 0.253 µM) of 1.02. The relative viability (QS11 + Lapatinib; first compound 0.8 µM) was 1.02, the relative viability (QS11 + Lapatinib; first compound 2.53 µM) was 1.29 and the relative viability (QS11 + Lapatinib; first compound 8 µM) was 1.07.

Work on NCI-H2342 yielded a relative viability (QS11 + AZD7762; first compound 0.08 µM) of 0.489, a relative viability (QS11 + AZD7762; first compound 0.253 µM) of 0.47 and a relative viability (QS11 + AZD7762; first compound 0.8 µM) of 0.502. For the same cell line, the relative viability (QS11 + AZD7762; first compound 2.53 µM) was 0.488, the relative viability (QS11 + AZD7762; first compound 8 µM) was 0.456 and the relative viability ([1]; first compound 0.08 µM) was 0.966. For the same cell line, the relative viability ([1]; first compound 0.8 µM) was 0.843, the relative viability ([1]; first compound 2.53 µM) was 0.789 and the relative viability ([1]; first compound 8 µM) was 0.73. The relative viability (Darinaparsin + Olaparib; first compound 0.08 µM) was 0.484, the relative viability (Darinaparsin + Olaparib; first compound 0.8 µM) was 0.398 and the relative viability (Darinaparsin + Olaparib; first compound 2.53 µM) was 0.461. It also gave a relative viability (Darinaparsin + Olaparib; first compound 8 µM) of 0.415.

With HOP-62 the relative viability (QS11 + AZD7762; first compound 0.08 µM) was 0.556, the relative viability (QS11 + AZD7762; first compound 0.253 µM) was 0.611 and the relative viability (QS11 + AZD7762; first compound 0.8 µM) was 0.538. For the same cell line, the relative viability (QS11 + AZD7762; first compound 2.53 µM) was 0.608, the relative viability (QS11 + AZD7762; first compound 8 µM) was 0.582 and the relative viability ([1]; first compound 0.08 µM) was 0.401. It also gave a relative viability ([1]; first compound 0.8 µM) of 0.385, a relative viability ([1]; first compound 2.53 µM) of 0.316 and a relative viability ([1]; first compound 8 µM) of 0.428. For the same cell line, the relative viability (Darinaparsin + Olaparib; first compound 0.08 µM) was 0.56, the relative viability (Darinaparsin + Olaparib; first compound 0.8 µM) was 0.487 and the relative viability (Darinaparsin + Olaparib; first compound 2.53 µM) was 0.402. For the same cell line, the relative viability (Darinaparsin + Olaparib; first compound 8 µM) was 0.525, the relative viability (QS11 + Lapatinib; first compound 0.08 µM) was 0.95 and the relative viability (QS11 + Lapatinib; first compound 0.253 µM) was 1.18. It also gave a relative viability (QS11 + Lapatinib; first compound 0.8 µM) of 0.863, a relative viability (QS11 + Lapatinib; first compound 2.53 µM) of 0.892 and a relative viability (QS11 + Lapatinib; first compound 8 µM) of 0.983.

In the case of NCI-H1651, the relative viability (QS11 + AZD7762; first compound 0.08 µM) is reported as 0.445, the relative viability (QS11 + AZD7762; first compound 0.253 µM) is reported as 0.481 and the relative viability (QS11 + AZD7762; first compound 0.8 µM) is reported as 0.487. It also gave a relative viability (QS11 + AZD7762; first compound 2.53 µM) of 0.458, a relative viability (QS11 + AZD7762; first compound 8 µM) of 0.404 and a relative viability ([1]; first compound 0.08 µM) of 0.825. For the same cell line, the relative viability ([1]; first compound 0.8 µM) was 0.784, the relative viability ([1]; first compound 2.53 µM) was 0.813 and the relative viability ([1]; first compound 8 µM) was 0.898. For the same cell line, the relative viability (Darinaparsin + Olaparib; first compound 0.08 µM) was 0.192, the relative viability (Darinaparsin + Olaparib; first compound 0.8 µM) was 0.18 and the relative viability (Darinaparsin + Olaparib; first compound 2.53 µM) was 0.18. For the same cell line, the relative viability (Darinaparsin + Olaparib; first compound 8 µM) was 0.159, the relative viability (QS11 + Lapatinib; first compound 0.08 µM) was 0.941 and the relative viability (QS11 + Lapatinib; first compound 0.253 µM) was 0.872. For the same cell line, the relative viability (QS11 + Lapatinib; first compound 0.8 µM) was 0.828, the relative viability (QS11 + Lapatinib; first compound 2.53 µM) was 1.01 and the relative viability (QS11 + Lapatinib; first compound 8 µM) was 0.76.

Work on NCI-H2085 yielded a relative viability (QS11 + AZD7762; first compound 0.08 µM) of 1.01, a relative viability (QS11 + AZD7762; first compound 0.253 µM) of 1.06 and a relative viability (QS11 + AZD7762; first compound 0.8 µM) of 0.791. The relative viability (QS11 + AZD7762; first compound 2.53 µM) was 1, the relative viability (QS11 + AZD7762; first compound 8 µM) was 0.991 and the relative viability ([1]; first compound 0.08 µM) was 0.469. It also gave a relative viability ([1]; first compound 0.8 µM) of 0.477, a relative viability ([1]; first compound 2.53 µM) of 0.586 and a relative viability ([1]; first compound 8 µM) of 0.618. For the same cell line, the relative viability (Darinaparsin + Olaparib; first compound 0.08 µM) was 0.866, the relative viability (Darinaparsin + Olaparib; first compound 0.8 µM) was 0.775 and the relative viability (Darinaparsin + Olaparib; first compound 2.53 µM) was 0.792. The relative viability (Darinaparsin + Olaparib; first compound 8 µM) was 0.745, the relative viability (QS11 + Lapatinib; first compound 0.08 µM) was 0.714 and the relative viability (QS11 + Lapatinib; first compound 0.253 µM) was 0.716. For the same cell line, the relative viability (QS11 + Lapatinib; first compound 0.8 µM) was 0.713, the relative viability (QS11 + Lapatinib; first compound 2.53 µM) was 0.861 and the relative viability (QS11 + Lapatinib; first compound 8 µM) was 0.778.

With NCI-H2023 the relative viability ([1]; first compound 0.08 µM) was 0.728, the relative viability ([1]; first compound 0.8 µM) was 0.557 and the relative viability ([1]; first compound 2.53 µM) was 0.629. For the same cell line, the relative viability ([1]; first compound 8 µM) was 0.579, the relative viability (Darinaparsin + Olaparib; first compound 0.08 µM) was 0.721 and the relative viability (Darinaparsin + Olaparib; first compound 0.8 µM) was 0.407. For the same cell line, the relative viability (Darinaparsin + Olaparib; first compound 2.53 µM) was 0.416, the relative viability (Darinaparsin + Olaparib; first compound 8 µM) was 0.434 and the relative viability (QS11 + Lapatinib; first compound 0.08 µM) was 0.809. It also gave a relative viability (QS11 + Lapatinib; first compound 0.253 µM) of 0.797, a relative viability (QS11 + Lapatinib; first compound 0.8 µM) of 0.747 and a relative viability (QS11 + Lapatinib; first compound 2.53 µM) of 0.773. The relative viability (QS11 + Lapatinib; first compound 8 µM) was 0.706.

— the supplement of paper PMC10307832
